Columns and labels:
C57BL/6J mice [1] = assay: Morris Water Maze (MWM); assay type: in vivo, mouse; conditions: i.p., OS 2 mg/kg
Description: (§1) Animal housing. Forty-eight Male C57BL/6J mice were purchased from Janvier Labs (Le Genest-Saint-Isle, France) and were time-specifically housed in a 12 h light-dark cycle (lights on at 7 am), with ad libitum water and food in conditioned rooms (22 °C, humidity ~60%).
(§2) Behavior assays. All mice were subjected to a behavioral test battery that consisted of several general performance tasks of locomotor activity, exploratory and anxiety-like behavior, and learning and memory. Mice were divided into four groups: Vehicle, OS (2 mg/kg), WIN55 (0.5 mg/kg), or OS + WIN. Each group consisted of 7–14 mice that received two i.p injections before each test, with a 10 min interval between each injection. Veh + Veh were injected with PBS. Veh + WIN were injected with PBS and WIN55. Veh + OS were injected with PBS and OS. OS + WIN were injected with OS and WIN55. PBS was used as vehicle as it was used for dilution of drugs. Tests were performed in the order described below after 10 min of the last injection, with a 24 h interval between each test.
Morris Water Maze (MWM): MWM [32] was used to assess the effects of OS, WIN, and OS + WIN in memory one day after the EPM test. MWM is a gold standard test to assess learning and memory consisting of 10 days of training and two probe trials in a pool with water at a temperature of 26 °C, with one submersed platform invisible to mice. Each mouse could try to find the platform for 100 s, four times per day, with an inter-trial interval of 15–30 min. In each trial, animals were released randomly from each of the four starting positions. This protocol of training was repeated for ten days (training sessions). The platform was removed on the 6th and 11th days, and the animals were left free to swim for 100 s (probe trials). Right after the first probe trial (day 6), animals were trained again with the platform at the same place. During the training sessions, the mean latency to find the platform for the session was calculated for each animal as the average of the four trials of the day. During the probe trials, the pool was divided into four equal virtual quadrants, and the time spent in the target quadrant (TQ) (i.e., the quadrant where the platform was located during the training sessions) was assessed as a measure of memory retention. For this test, we used Veh (n = 9), OS (n = 8), WIN (n = 8), OS + WIN (n = 14).

MRGPRX2 = MRGPRX2 (Homo sapiens, UniProt Q96LB1)
C57BL/6J mice [2] = assay: Open Field (OF); assay type: in vivo, mouse; conditions: i.p.
Description: as §1, §2
Open Field (OF): One day after the cage activity test, mice were tested in the OF paradigm. The OF aimed to test the OS, WIN, and OS + WIN effect on animal locomotion and exploratory behavior. Animals were placed in the test room one hour before starting the test. For the OF, animals were placed in a plexiglass box (60 × 60 × 60 cm) divided into three zones (center, periphery, and corners) for 10 min and left free to explore. Total distance and time in zones were counted. Here, more time in the center meant an anxiolytic effect, and a higher distance walking meant an increase in locomotor activity. For this test, we used Veh (n = 8), OS (n = 10), WIN (n = 7), OS + WIN (n = 8).

MOR = MOR (Homo sapiens, UniProt P35372)
TRPV1 [3] = biological target: T1, TRPV1 (Homo sapiens, UniProt Q8NER1); assay type: cell-based
T1 construct: expressed in transfected cells; host or cells: Xenopus laevis oocytes (cRNA injection)

TRPV1 [4] = test system: TRPV1; design: method as in PMID 17279090; conditions: HEK cells overexpressing TRPV1; read-out: IC50 as antagonist of TRPV1; cited from earlier work
CB1 receptor (hCB1) = biological target: T2, CB1 receptor (hCB1) (Homo sapiens, UniProt P21554); assay: Two-electrode voltage-clamp, CB1-GIRK1/GIRK2-RGS4 coupling system expressed in Xenopus oocytes; assay type: cell-based
T2 construct: expressed in transfected cells; host or cells: Xenopus laevis oocytes (cRNA injection)

C57BL/6J mice [5] = assay: Home cage activity test; assay type: in vivo, mouse; conditions: i.p., OS 2 mg/kg
Description: as §1, §2
Cage activity assessment: At P60, animals were moved to the cage activity room for one hour before injections for habituation.. The cage activity assessment consists of placing the mice in a transparent box which is placed between three infrared sensors (two on the cage’s side and one in its front) that count how many times the mice cross the infrared beams. The times of beams crossed in each 30 min were counted over a period of 24 h and used as a locomotor activity measurement. In addition, we also compared the total number of beams crossed during the day and night period. For this test, we used Veh (n = 10), OS (n = 9), WIN (n = 11), OS + WIN (n = 8).

5-HT4aR = 5-HT4aR (Mus musculus, UniProt P97288)
α7-nAChR = α7-nAChR (Homo sapiens, UniProt P36544)
hERG = hERG (Homo sapiens, UniProt Q12809)
Excerpt: (§3) Electrophysiological measurements.
(§4) (A), (B), (C), and (D) represent that
(§5) currents through the channels.
(§6) in oocytes, as described before (6-8).

KV1.5 = KV1.5 (Homo sapiens, UniProt P22460)
Excerpt: as §3, §4, §5, §6

CaV3.1 = CaV3.1 (Homo sapiens, UniProt O43497)
Excerpt: as §3, §4, §5, §6

NaV1.5 = NaV1.5 (Homo sapiens, UniProt Q14524)
Excerpt: as §3, §4, §5, §6

T2 sequence (P21554 whole entry): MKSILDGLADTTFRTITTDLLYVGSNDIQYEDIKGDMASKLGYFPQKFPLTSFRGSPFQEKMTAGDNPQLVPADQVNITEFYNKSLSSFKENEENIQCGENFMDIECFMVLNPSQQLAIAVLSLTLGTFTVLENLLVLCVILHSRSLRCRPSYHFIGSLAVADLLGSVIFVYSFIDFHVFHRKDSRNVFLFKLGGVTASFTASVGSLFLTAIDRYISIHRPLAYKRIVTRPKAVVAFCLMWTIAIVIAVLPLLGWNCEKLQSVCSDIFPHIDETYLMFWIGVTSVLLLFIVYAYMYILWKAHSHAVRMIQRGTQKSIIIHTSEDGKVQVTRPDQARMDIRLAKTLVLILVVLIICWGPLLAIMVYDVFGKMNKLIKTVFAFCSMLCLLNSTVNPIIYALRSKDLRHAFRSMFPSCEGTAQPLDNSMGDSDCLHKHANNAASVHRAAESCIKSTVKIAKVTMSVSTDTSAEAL
Chain of CaV3.1 (O43497 whole entry): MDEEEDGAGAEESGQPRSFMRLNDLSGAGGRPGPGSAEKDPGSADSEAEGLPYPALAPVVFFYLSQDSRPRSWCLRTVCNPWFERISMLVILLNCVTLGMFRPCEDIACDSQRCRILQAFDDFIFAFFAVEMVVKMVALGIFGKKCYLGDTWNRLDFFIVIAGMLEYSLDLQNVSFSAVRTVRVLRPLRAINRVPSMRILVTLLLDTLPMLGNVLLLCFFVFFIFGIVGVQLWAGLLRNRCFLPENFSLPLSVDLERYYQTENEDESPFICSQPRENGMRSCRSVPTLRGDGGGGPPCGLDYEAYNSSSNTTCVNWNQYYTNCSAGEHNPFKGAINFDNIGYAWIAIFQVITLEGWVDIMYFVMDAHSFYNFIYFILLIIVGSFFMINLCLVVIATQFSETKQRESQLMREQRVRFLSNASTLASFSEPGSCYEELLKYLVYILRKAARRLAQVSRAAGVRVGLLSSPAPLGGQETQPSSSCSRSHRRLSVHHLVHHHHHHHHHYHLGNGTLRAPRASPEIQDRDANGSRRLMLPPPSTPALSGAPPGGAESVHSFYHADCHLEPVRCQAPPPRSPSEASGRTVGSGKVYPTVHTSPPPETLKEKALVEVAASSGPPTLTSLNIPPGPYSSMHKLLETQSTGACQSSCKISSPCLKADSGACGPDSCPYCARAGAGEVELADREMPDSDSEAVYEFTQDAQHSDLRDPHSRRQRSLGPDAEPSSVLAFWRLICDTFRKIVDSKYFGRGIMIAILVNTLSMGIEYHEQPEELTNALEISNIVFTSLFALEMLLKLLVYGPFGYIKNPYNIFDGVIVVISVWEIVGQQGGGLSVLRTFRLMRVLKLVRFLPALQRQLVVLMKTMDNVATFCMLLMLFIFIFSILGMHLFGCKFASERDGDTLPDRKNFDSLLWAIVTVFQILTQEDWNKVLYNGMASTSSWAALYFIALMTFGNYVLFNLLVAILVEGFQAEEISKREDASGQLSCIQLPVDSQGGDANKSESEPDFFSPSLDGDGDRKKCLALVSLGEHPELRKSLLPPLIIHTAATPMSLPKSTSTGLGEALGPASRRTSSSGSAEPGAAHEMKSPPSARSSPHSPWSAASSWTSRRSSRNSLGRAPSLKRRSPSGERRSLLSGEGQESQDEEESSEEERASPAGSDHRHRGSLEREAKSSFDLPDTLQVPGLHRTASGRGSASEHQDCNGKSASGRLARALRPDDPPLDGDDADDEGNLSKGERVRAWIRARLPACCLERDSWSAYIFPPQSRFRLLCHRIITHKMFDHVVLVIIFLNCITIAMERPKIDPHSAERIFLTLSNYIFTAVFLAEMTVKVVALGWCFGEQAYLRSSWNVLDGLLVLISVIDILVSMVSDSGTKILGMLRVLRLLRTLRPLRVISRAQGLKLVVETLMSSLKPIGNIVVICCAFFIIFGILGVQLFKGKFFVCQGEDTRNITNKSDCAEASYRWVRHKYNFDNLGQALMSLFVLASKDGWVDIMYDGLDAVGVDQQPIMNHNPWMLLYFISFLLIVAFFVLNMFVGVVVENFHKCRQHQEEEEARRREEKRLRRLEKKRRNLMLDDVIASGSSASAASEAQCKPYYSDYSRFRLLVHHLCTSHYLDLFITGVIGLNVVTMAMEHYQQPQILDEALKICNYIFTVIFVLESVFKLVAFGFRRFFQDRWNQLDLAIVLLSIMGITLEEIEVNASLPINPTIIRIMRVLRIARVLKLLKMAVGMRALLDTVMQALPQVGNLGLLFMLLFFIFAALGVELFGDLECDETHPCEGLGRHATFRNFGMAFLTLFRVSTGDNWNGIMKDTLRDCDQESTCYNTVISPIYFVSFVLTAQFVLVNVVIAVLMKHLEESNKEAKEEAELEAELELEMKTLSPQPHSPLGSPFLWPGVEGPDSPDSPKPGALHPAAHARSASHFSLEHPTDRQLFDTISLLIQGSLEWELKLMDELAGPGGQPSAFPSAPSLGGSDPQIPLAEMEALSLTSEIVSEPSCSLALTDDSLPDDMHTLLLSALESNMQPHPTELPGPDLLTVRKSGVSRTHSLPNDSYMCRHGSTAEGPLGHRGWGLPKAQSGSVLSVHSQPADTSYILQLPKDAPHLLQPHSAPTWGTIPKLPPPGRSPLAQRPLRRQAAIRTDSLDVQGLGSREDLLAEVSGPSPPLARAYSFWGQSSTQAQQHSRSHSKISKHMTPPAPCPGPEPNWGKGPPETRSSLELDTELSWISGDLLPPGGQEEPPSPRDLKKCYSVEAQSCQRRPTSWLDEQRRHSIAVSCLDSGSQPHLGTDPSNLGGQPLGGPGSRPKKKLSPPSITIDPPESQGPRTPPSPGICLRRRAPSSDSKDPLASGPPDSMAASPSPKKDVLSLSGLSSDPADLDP
T1 sequence (Q8NER1 whole entry): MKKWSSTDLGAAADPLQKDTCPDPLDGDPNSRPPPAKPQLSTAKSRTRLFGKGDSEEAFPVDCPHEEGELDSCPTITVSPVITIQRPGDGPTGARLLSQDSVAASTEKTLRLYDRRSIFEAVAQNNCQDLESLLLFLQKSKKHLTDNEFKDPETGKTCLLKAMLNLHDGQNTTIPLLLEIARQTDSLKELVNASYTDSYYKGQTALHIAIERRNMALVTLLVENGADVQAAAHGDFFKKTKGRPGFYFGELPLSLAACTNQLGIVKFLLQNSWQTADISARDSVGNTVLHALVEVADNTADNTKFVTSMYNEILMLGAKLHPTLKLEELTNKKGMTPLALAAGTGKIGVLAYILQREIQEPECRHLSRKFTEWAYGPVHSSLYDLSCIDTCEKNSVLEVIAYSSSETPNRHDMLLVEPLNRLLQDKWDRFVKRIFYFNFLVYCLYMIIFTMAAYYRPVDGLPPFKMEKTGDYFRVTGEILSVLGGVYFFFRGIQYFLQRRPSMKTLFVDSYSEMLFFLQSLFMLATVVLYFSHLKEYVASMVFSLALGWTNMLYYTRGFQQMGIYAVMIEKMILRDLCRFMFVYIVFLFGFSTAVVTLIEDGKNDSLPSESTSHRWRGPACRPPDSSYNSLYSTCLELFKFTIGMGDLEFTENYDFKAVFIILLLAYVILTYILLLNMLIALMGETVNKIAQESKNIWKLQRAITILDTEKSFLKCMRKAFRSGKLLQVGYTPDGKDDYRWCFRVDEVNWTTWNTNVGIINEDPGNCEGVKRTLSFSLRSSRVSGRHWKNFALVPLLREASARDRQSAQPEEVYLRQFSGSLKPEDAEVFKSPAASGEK
Chain of MRGPRX2 (Q96LB1 whole entry): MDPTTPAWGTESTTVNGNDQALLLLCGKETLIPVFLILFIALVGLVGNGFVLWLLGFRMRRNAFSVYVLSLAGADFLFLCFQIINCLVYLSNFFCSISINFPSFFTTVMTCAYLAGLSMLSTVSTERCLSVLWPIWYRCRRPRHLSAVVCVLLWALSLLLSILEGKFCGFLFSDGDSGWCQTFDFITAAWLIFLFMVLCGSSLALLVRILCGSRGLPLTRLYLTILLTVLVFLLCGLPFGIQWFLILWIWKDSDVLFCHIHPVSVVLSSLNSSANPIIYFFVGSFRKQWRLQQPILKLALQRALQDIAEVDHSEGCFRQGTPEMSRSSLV
Chain of 5-HT4aR (P97288 1-387 isoform P97288-2): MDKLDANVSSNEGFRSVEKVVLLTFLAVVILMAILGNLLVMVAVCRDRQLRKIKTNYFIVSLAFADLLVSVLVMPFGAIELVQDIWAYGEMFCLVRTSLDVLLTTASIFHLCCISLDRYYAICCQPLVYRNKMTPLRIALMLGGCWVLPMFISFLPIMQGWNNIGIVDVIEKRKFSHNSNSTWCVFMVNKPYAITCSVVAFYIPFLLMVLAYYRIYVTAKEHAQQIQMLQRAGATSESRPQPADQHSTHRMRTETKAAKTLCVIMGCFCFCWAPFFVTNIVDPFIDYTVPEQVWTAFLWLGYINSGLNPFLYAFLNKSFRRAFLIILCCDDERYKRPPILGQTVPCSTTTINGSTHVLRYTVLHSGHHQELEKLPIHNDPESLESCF
Chain of α7-nAChR (P36544 23-502): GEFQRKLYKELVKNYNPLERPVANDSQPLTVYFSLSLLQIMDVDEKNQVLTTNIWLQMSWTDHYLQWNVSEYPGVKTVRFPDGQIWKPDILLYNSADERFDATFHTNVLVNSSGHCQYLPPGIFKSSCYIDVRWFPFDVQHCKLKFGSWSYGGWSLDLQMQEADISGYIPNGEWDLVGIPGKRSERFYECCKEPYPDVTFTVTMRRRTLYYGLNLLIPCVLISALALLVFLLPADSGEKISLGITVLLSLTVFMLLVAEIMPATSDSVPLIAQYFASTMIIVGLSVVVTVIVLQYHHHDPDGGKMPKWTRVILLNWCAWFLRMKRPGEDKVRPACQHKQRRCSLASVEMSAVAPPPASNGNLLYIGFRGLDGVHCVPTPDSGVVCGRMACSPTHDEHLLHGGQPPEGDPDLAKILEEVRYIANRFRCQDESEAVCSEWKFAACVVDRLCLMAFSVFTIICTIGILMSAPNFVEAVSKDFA

SMILES: CCCCCCCC/C=C\CCCCCCCC(=O)NCCc1c[nH]c2ccc(O)cc12 [OS, oleoyl serotonin]
- Time spent in the target quadrant (TQ), first probe trial (C57BL/6J mice [1]; 100 s trial): more than 25 s
- Performance in first probe trial vs control (time in target quadrant) (C57BL/6J mice [1]; day 6): performed worse than the control
- Activity in selectivity screening (MRGPRX2): did not show significant activity
- Effect of OS injection on the WIN-induced decrease of time in the periphery (C57BL/6J mice [2]; OS 2 mg/kg before WIN 0.5 mg/kg): prevented this decrease
- Total distance walked in open field (locomotion) (C57BL/6J mice [2]; OS 2 mg/kg, WIN 0.5 mg/kg, 10 min test): neither OS nor WIN affected locomotion
- Time spent in the center zone of open field (C57BL/6J mice [2]; OS 2 mg/kg, WIN 0.5 mg/kg, compared with Veh + WIN): spent more time than the WIN-only group
- Activity in selectivity screening (MOR): did not show significant activity
- Activity in selectivity screening (TRPV1 [3]): did not show significant activity
- IC50 (TRPV1 [4]): 2.57 µM
- Effect on WIN55,212-2-induced inward K+ currents (IK,WIN+OS) (CB1 receptor (hCB1); 100 μM OS co-applied with 0.3 μM WIN55,212-2): inhibited
- Effect of OS alone on IK,basal (CB1 receptor (hCB1); 100 μM OS, 20–30 s, in HK): did not change the response of IK,basal
- IC50 (CB1 receptor (hCB1); IC50 of blocking CB1 receptor activated by WIN55,212-2, 0.03 μM WIN + OS): 2.4 µM
- IC50 (CB1 receptor (hCB1); IC50 of blocking CB1 receptor activated by WIN55,212-2, 0.1 μM WIN + OS): 6.5 µM
- IC50 (CB1 receptor (hCB1); IC50 of blocking CB1 receptor activated by WIN55,212-2, 0.3 μM WIN + OS): 16.2 µM
- IC50 (CB1 receptor (hCB1); IC50 of blocking CB1 receptor activated by WIN55,212-2, 1 μM WIN + OS): 34.1 µM
- Mode of antagonism (CB1 receptor (hCB1); against WIN55,212-2): competitively blocked
- Overall locomotion during the night in home cage vs control (C57BL/6J mice [5]): moved more in the cage compared to the control group
- Cage activity (beam crossings) 2 h after the beginning of night phase (C57BL/6J mice [5]; WIN 0.5 mg/kg, 21 h): notably increased cage activity
- Activity in selectivity screening (5-HT4aR): did not show significant activity
- Activity in selectivity screening (α7-nAChR): did not show significant activity
- Activity in selectivity screening (hERG): did not show significant activity
- Activity in selectivity screening (KV1.5): did not show significant activity
- Activity in selectivity screening (CaV3.1): did not show significant activity
- Activity in selectivity screening (NaV1.5): did not show significant activity
